On to `CCOC(=O)C1=C(N)NC(C)=C(C(C)=O)C1c1cccc([N+](=O)[O-])c1` (stereo not drawn), for which the melting point – broadly, the temperature of the solid-liquid transition – is 217 °C.

The compound `O=S(c1cn(-c2c(Cl)cc(C(F)(F)F)cc2Cl)c(Cl)n1)C(F)(F)F` (stereo not drawn) returned a melting point of 148 °C.

Take `CCOC(=O)Cc1ccc(OCCCN2CCC(C(O)(c3ccc(F)cc3)c3ccc(F)cc3)CC2)c(OC)c1`: the melting point fell in the range of 110 to 112 °C.

For the compound `CCC(NC(C)=O)c1ccc(Cl)c2nc3n(c12)CCCN3c1ccc(Cl)cc1Cl` (stereo not drawn), the melting point is 237 to 239 °C.

On to `CC1(C)O[C@H]2CC(O)=C(O)C(=O)[C@H]2O1`, for which the melting point lay within 153 to 154 °C.

Consider `CCCOc1ccc(S(=O)(=O)N2CCOCC2)cc1-c1nc2c([nH]1)c1nncn1c(=O)n2CCC`, for which the melting point worked out at 169 °C.

Compound `CC(=O)O[C@H]1C[C@@H](n2cnc3c(=O)[nH]cnc32)[C@H](O)[C@@H]1O` (racemic) displayed a melting point of 240 to 242 °C.

Regarding `CCn1cc(CN(C(=O)C2CCCc3ccc(O)cc32)c2ccc(C(C)C)cc2)cn1` (stereo not drawn), the melting point fell in the range of 169 to 170 °C.

In the case of `CC(=O)c1ccc(C=CC(=O)N2CCc3c([nH]c4ccccc34)C2c2ccc3c(c2)OCO3)cc1O` (stereo not drawn), the melting point is 217 to 218 °C.

For the compound `COC(=O)C1Cc2c(OC)cccc2N1S(=O)(=O)c1ccc(-c2ccc(F)cc2Cl)cc1` (stereo not drawn), the melting point turned out to be 80 °C.

As to `CSc1c(Cl)nc(Cl)nc1SC#N`, the melting point lay within 143 to 144 °C.

Compound `ClC(=NNc1ccccc1)c1ccc(Cl)c(Cl)c1` came in with a melting point of 121 to 124 °C.

With `Cc1cccc(C=CCC(C(=O)C=Cc2ccc(Cl)cc2)c2ccccc2)c1` (stereo not drawn), the melting point was in the range of 89 to 93 °C.

With `CCCCOc1ccc(C(=O)N[C@@H]2CCc3cccc(N4CCN(C)CC4)c3C2)cc1`, the melting point was 190 to 191 °C.

Take `O=C(O)c1ccc2ccccn2c1=O`: the melting point fell in the range of 235 to 240 °C.

In turn, `CCCCCCCCCCCCCCCCCCOP(=O)(Cc1cc(Cl)c(O)c(C(C)(C)C)c1)OCCCCCCCCCCCCCCCCCC` came in with a melting point of 55 °C.

In turn, `CC(C)(O)c1ccc(CNC(=O)c2cccnc2Oc2ccc3ncoc3c2)cc1` came in with a melting point of 92 to 94 °C.

Take `c1ccc(-n2c3c(c4ccccc42)CCNCC3)cc1`: the melting point was in the range of 174 to 180 °C.

As to `CC(C)(C)c1cc(CCc2ccccc2NC(=O)NCc2ccncc2)cc(C(C)(C)C)c1O`, the melting point is 214 to 215 °C.

For `CC(=O)C1CCC2C3CCC4CCCCC4(C)C3CCC12C` (stereo not drawn), the melting point fell in the range of 84 to 90 °C.

In the case of `CCOC(=O)C(=CC=C(C)C=CC=C(C)C=CC1=C(C)CCCC1(C)C)CC`, the melting point is 164 to 165 °C.

As for `COc1ccc(S(=O)(=O)Nc2cccc(F)c2/C=C/c2ccncc2)cc1`, the melting point is 177 to 178 °C.

`CC(=O)OC1CSC(Oc2cccc3onc(C)c23)C(OC(C)=O)C1OC(C)=O` (stereo not drawn) came in with a melting point of 155 to 158 °C.

On to `CCOC(=O)c1c(C(F)(F)F)nn(C)c1N`, for which the melting point fell in the range of 120 to 121 °C.

For `Cc1nc(C)c(-c2cncc(OC3SCC(O)C(O)C3O)c2)s1` (stereo not drawn), the melting point was determined as 150 °C.

For `COc1ccc2ncc(C#N)c(Nc3ccc4nn[nH]c4c3)c2c1`, the melting point is above 250 °C.

For `CNC(=O)COCC(=O)O`, the melting point lay within 33 to 33.5 °C.

Regarding `Cc1nc(-c2ccccc2)c(CBr)o1`, the melting point lay within 75 to 76 °C.

For `CC1(C)COC(c2ccc3c(c2-c2c(C4=NC(C)(C)CO4)ccc4c2OCO4)OCO3)=N1`, the melting point is 152 to 154 °C.

The compound `CS(=O)c1c(C=NO[Si](C)(C)C(C)(C)C)nn(-c2c(Cl)cc(C(F)(F)F)cc2Cl)c1N` (stereo not drawn) had a melting point of 150 to 154 °C.

The compound `Cc1oc(-c2ccccc2)nc1CCOc1ccc(CC2SC(=O)NC2=O)c2sccc12` (stereo not drawn) displayed a melting point of 196 to 197 °C.

For the compound `NS(=O)(=O)c1ccccc1S(N)(=O)=O`, the melting point is 250 °C.

Compound `CCCc1c(OCCCSc2ccc3c(=O)cc(C(=O)O)[nH]c3c2CCC)ccc(C(C)=O)c1O` came in with a melting point of 192 to 194 °C.

`O=C1CC2(CCOc3ccc(Cl)cc32)C(=O)N1` (stereo not drawn) displayed a melting point of 225 to 226 °C.

On to `CCC12CCC3C4CCC(=O)C=C4CCC3C1CCC2(C)O` (stereo not drawn), for which the melting point lay in the range of 128 to 129 °C.

The compound `CC12CCC(=O)CC1CCC1C2CCC2(C)C(C(N)=O)CCC12` (stereo not drawn) came in with a melting point of 259 to 262 °C.

For the compound `CCc1coc2c(-c3ccc(F)cc3)c(-c3ccc(S(N)(=O)=O)cc3)nn12`, the melting point was 234 to 236 °C.

Consider `Cc1ccc(C)n1Nc1nnc(N2CCOCC2)c2ccccc12`, for which the melting point lay in the range of 255 to 260 °C.

With `N#Cc1ccc(C=O)c(-c2cccs2)c1`, the melting point stood at 114 °C.

`COC(=O)c1cc(OC)c(N(C)C(C)=O)c(OC)c1` yielded a melting point of 115 to 116 °C.

On to `C[C@H]1CCCC(C)(C)[C@@H]1[C@H](O)c1ccc(F)cc1`, for which the melting point was in the range of 55 to 57 °C.

For the compound `CCOC(=O)c1cccn2ccnc12`, the melting point was 48 to 50 °C.

Consider `N#Cc1nn(-c2c(Cl)cc(C(F)(F)F)cc2Cl)c(N)c1-c1cccc(N)c1`, for which the melting point worked out at 187 °C.

In turn, `Cc1cccc(COc2cccc(OCc3ccc4ccccc4n3)c2)c1OCC(=O)O` yielded a melting point of 154 to 157 °C.

As to `CC(=O)Nc1ccnn1-c1c(F)c(F)c(C(F)(F)F)c(F)c1F`, the melting point lay within 102 to 104 °C.

`CCN(CC)c1ccc2cc(-c3nc(-c4ccccc4)cs3)c(=O)oc2c1` returned a melting point of 127 to 130 °C.

On to `CCCN1CC(c2cccc(O)c2)CC1C` (stereo not drawn), for which the melting point lay within 123 to 124 °C.

For the compound `CS(=O)(=O)N1CCN(c2ccc(C(=O)CCc3ccc(N)cc3)cc2)CC1`, the melting point lay in the range of 166 to 170 °C.

`CCOC(=O)C=Cc1ccc(OC2CCCCO2)cc1` (stereo not drawn) came in with a melting point of 52 to 53 °C.

Take `CN(Cc1cccc2c1CN(C1CCC(=O)NC1=O)C2=O)C(=O)NC1CCCCC1` (stereo not drawn): the melting point lay in the range of 219 to 221 °C.

The compound `[N-]=[N+]=N[C@]1(C(=O)O)[C@H]2[C@@H](C[C@H]1O)[C@@H]2C(=O)O` showed a melting point of 124 to 128 °C.

As for `O=S1(=O)c2cccc3cccc(c23)N1CCCN1CC=C(c2ccccc2)CC1`, the melting point turned out to be 88 °C.

Regarding `CCON=C(C)C(C)=NOc1ncccc1C(=NOC)C(=O)NC`, the melting point turned out to be 110 °C.

As to `CCCCC(CC)COc1ccc2c(c1)C(=O)c1ccc(OCC(CC)CCCC)cc1C2=O` (stereo not drawn), the melting point was 49 to 51 °C.

For the compound `CC(=O)OCCc1cc2c(s1)S(=O)(=O)CCc1cc(=O)n(-c3ccc(Cl)cc3)nc1-2`, the melting point was 137 to 140 °C.

`Cc1cc2c(cc1N1CCc3ccccc31)OC(=O)C2C` (stereo not drawn) yielded a melting point of 176 to 178 °C.

`CCCn1c(-c2ccccc2)nc2cc(C(=O)OC)ccc21` registered a melting point of 79.8 °C.

On to `Nc1cc(C(F)(F)F)ccc1-c1cc2ccccc2[nH]1`, for which the melting point lay in the range of 164 to 166 °C.

Take `CO[C@@H]1CN(CCCn2nc(Cl)ccc2=O)CC[C@@H]1NC(=O)c1cc(Cl)c(N)c2c1OCCC2` (relative stereo): the melting point came out at 150 °C.

In the case of `Cc1ncccc1Cn1nnnc1-c1ccc(Cl)c(Cl)c1`, the melting point fell in the range of 176 to 178 °C.

The compound `COc1nc(N)nc(SC(F)F)n1` registered a melting point of 146 to 150 °C.

For `O=C1OC(O)c2ccc([N+](=O)[O-])cc21` (stereo not drawn), the melting point lay within 157 to 160 °C.

For `CC(C)c1ccc(N(Cc2cnn(Cc3ccc(Cl)s3)c2)C(=O)C2CCCc3c(O)cccc32)cn1` (stereo not drawn), the melting point was in the range of 98 to 101 °C.

Source of the values: a melting point compilation (Tetko et al.; mined from patent text by program, amines drawn as free bases though some values may be those of a salt).
